# Experimental data: USRE39682E1, “Farnesyl derivatives and pharmaceutical compositions containing them” (Ramot at Tel Aviv University Ltd., priority 1993, dated 2007)
# How the values were obtained:
# [1] = system: SV-40 T-antigen transformed CHO cells; experiment: Growth of T-antigen transformed cells; assay type: cell-based; details: 25 μM
# Text: (§1) The cell lines employed were rat1, -EJ, which are rat1 cells stably expressing Val- 12 activated human Ha-ras gene (Land H. et al., Nature, 304, 596-602, (1983)); V-raf-3T3, which are 3T3 cells stably expressing the V-raf gene (Xu, N., et al., Proc. Natl. Acad. Sci., 90, 6741-6745); RB-22, which are 3T3 cells stably expressing the rat Erb-B2 gene (Peles, et al., EMBO J., 10, 2077-2086 (1991)) CO6O cells (SV40-CHO), which are CHE cells stably expressing the SV-40 T-antigen gene (Lavi, Proc. Natl. Acad. Sci., 78, 6144-6148 (1981)); human endometrial carcinoma cell line HEC1A, which are cells that express activated K-ras (Enomoto T., Cancer Res., 50, 6139-6145; mouse B16F10 melanoma cells, rat pheochromocytoma PC12 cells, […] cells CHE and COS cells.
# (§2) HEC1A, V-raf-3T3 and SV40-CHE cells were grown in Dulbecco's modified Eagle medium (DMEM) containing 10% fetal calf serum (FCS), 4 mM L-glutamine, 10 μg/ml streptomycin and 10 U/ml penicillin. Rat1 and -EJ cells were grown in the same medium except that it was supplemented with 12.5 U/ml nyostatin. RB-22 cells were grown in modified DMEM (1 mM sodium pyruvate, 20 mM sodium bicarbonate)/10% FCS containing 4 mM L-glutamine, […] streptomycin, 10 U/ml penicillin. […]
# (§3) The potent PPMTase inhibitor FTS was used to examine selectivity of the drugs towards ras-dependent growth-signaling pathways. […] Cells were counted on day 5 of the experiment.
# ras proteins = experiment: Methylation of immunoprecipitated ras proteins in intact ras-transformed rat1 cells; assay type: cell-based, rat; details: 100 μM, FIG. 4
# Text: HEC1A, rail, ras-transformed rail and B16F10 melanoma cells were also used for metabolic labelling of endogenous proteins with 100-300 μCi/ml [methyl-^3H]methionine which was also indicative of PPMTase activity. Metabolic labelling procedures were as detailed elsewhere (Hakiai et al., supra. (1991); Lenner et al., supra. (1992)), and immunoprecipitation of ras with Y13-159 Ab were as detailed by Clarke et al. (Proc. Natl. Acad. Sci. USA, 85, 4643-4647 (1988)).
# While the above Table II determines the PPMTase activity by assaying the methylation of a synthetic substrate, FIG. 3 determines this activity by methylation of various endogenous ras-like prenylated GTP-binding proteins present in intact HEC1A, ras-transformed rat1 and melanoma cells, with and without 100 μM of FTA or FTS. […] Use of [α-P^32]
# HEC1A cells = experiment: Transformed phenotype (multi-layered clumps) of HEC1A cells; assay type: cell-based, human
# Text: HEC1A cells also grow in multi-layered clumps (FIG. 10A).
# [2] = system: V-raf transformed 3T3 cells; experiment: Growth of V-raf transformed cells; assay type: cell-based; details: 25 μM
# Text: as §1, §2, §3
# in vivo = details: Bulb-C, mouse, in vivo, ip
# Procedure: (§4) Seven groups of five mice were used. The mice received a single i.p. dose of FTS in DMSO or the solvent only. Doses used in this experiment ranged from 0.5 mg/kg to 268 mg/kg.
# Bulb-C mice = experiment: in vivo
# Procedure: as §4
structure (smiles),measurement,setting,value
"CC(C)=CCC/C(C)=C/CC/C(C)=C/CSc1ccccc1C(=O)O [FTS, (3,7,11-trimethyl-dodeca-2,6,10-trienyl)-2-thiobenzoic acid]",effect on growth of T-antigen-transformed cells,[1],no effects
same,Number of cells (% of control),"[1]; Y-antigen transformed CHO, day 5",99 ± 9 % of control
same,inhibition of methylation of ras proteins,ras proteins,inhibits
same,effect on multi-layered clumps formation,"HEC1A cells; 10 μM, FIG. 10B",significant reversal of the multi-layered clumps formation
same,effect on multi-layered clumps formation,"HEC1A cells; 50 μM, FIG. 10C",significant reversal of the multi-layered clumps formation
same,effect on growth of V-raf transformed cells,[2],no effects
same,Number of cells (% of control),"[2]; Y-ref transformed 3T2, day 5",93 ± 8 % of control
same,LD50 at 3 weeks,in vivo,> 100 mg/kg
same,Number of live mice (3 weeks following injection),Bulb-C mice; 0.5 mg/kg single i.p.,5/5
same,Number of live mice (3 weeks following injection),Bulb-C mice; 5.0 mg/kg single i.p.,5/5
same,Number of live mice (3 weeks following injection),Bulb-C mice; 10.0 mg/kg single i.p.,5/5
same,survival,Bulb-C mice; 50 mg/kg or lower single i.p.,all mice survived
same,Number of live mice (3 weeks following injection),Bulb-C mice; 50.0 mg/kg single i.p.,5/5
same,mice out of 5 died,Bulb-C mice; 134 mg/kg single i.p.,2
same,Number of live mice (3 weeks following injection),Bulb-C mice; 134.0 mg/kg single i.p.,3/5
same,Number of live mice (3 weeks following injection),Bulb-C mice; 268.0 mg/kg single i.p.,0/5
same,mortality,Bulb-C mice; highest dose (268 mg/kg) single i.p.,all mice died
